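Results reflect a 48-hour exposure of cells in 96-well plates to compound at five concentrations. Here, GI50 denotes the concentration required for 50% inhibition of growth. TGI: concentration producing complete growth inhibition.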
Experiments:
Experiment in all cases: NCI anticancer screen, dose series, 48 h
[1] = system: MOLT-4 leukemia
[2] = system: TK-10 renal
[3] = system: SK-MEL-28 melanoma
[4] = system: HCT-15 colon
[5] = system: PC-3 prostate
[6] = system: MDA-MB-231 breast
[7] = system: IGROV1 ovarian
[8] = system: KM12 colon
[9] = system: HOP-92 NSCLC
[10] = system: MALME-3M melanoma
[11] = system: UO-31 renal
[12] = system: T-47D breast
[13] = system: HS 578T breast
[14] = system: MDA-MB-435
[15] = system: A549 NSCLC
[16] = system: M14 melanoma
[17] = system: K-562 leukemia
[18] = system: 786-0 renal
[19] = system: NCI-H460 lung
[20] = system: NCI-H522 lung
[21] = system: CCRF-CEM leukemia
[22] = system: NCI/ADR-RES ovarian
[23] = system: OVCAR-5 ovarian
[24] = system: DU-145 prostate
[25] = system: RXF 393 renal
[26] = system: SNB-75 CNS
[27] = system: NCI-H226 lung
[28] = system: OVCAR-8 ovarian
[29] = system: UACC-62 melanoma
[30] = system: ACHN renal
[31] = system: OVCAR-3 ovarian
[32] = system: SNB-19 CNS
[33] = system: COLO 205 colon
[34] = system: HL-60(TB) leukemia
[35] = system: MCF7 breast
[36] = system: LOX IMVI melanoma
[37] = system: HCC-2998 colon
[38] = system: SR leukemia
[39] = system: BT-549 breast
[40] = system: RPMI-8226 leukemia
[41] = system: EKVX NSCLC
[42] = system: SF-539 CNS
[43] = system: SK-MEL-2 melanoma
[44] = system: HCT-116 colon
[45] = system: SN12C renal
[46] = system: NCI-H23 lung
[47] = system: SW-620 colon
[48] = system: U251 CNS
[49] = system: A498 renal
[50] = system: CAKI-1 renal
[51] = system: SF-295 CNS
[52] = system: UACC-257 melanoma
[53] = system: HOP-62 NSCLC
[54] = system: HT29 colon
[55] = system: SK-OV-3 ovarian
[56] = system: OVCAR-4 ovarian
[57] = system: SF-268 CNS
[58] = system: SK-MEL-5 melanoma

C#CCN(C)CCCOc1ccc(NCc2ccc(/C=C/C(=O)NO)cc2)cc1Cl
GI50 [1]: 0.33 µM | TGI [1]: 17.1 µM | GI50 [2]: 0.387 µM | TGI [2]: 3.29 µM | GI50 [3]: 0.485 µM | TGI [3]: 1.92 µM | GI50 [4]: 0.512 µM | TGI [4]: 4.6 µM | GI50 [5]: 0.509 µM | TGI [5]: 6.85 µM | GI50 [6]: 0.502 µM | TGI [6]: 4.5 µM | GI50 [7]: 0.361 µM | TGI [7]: 1.57 µM | GI50 [8]: 1.02 µM | TGI [8]: 6.8 µM | GI50 [9]: 0.34 µM | TGI [9]: 1.41 µM | GI50 [10]: 0.242 µM | TGI [10]: 1.59 µM | GI50 [11]: 0.299 µM | TGI [11]: 1.55 µM | GI50 [12]: 0.338 µM | TGI [12]: > 31 µM | GI50 [13]: 0.582 µM | TGI [13]: 6.22 µM | GI50 [14]: 0.33 µM | TGI [14]: 1.28 µM | GI50 [15]: 0.528 µM | TGI [15]: 2.54 µM | GI50 [16]: 0.465 µM | TGI [16]: 2.1 µM | GI50 [17]: 0.297 µM | TGI [17]: > 100 µM | GI50 [18]: 1.13 µM | TGI [18]: 2.75 µM | GI50 [19]: 0.43 µM | TGI [19]: 3.21 µM | GI50 [20]: 0.407 µM | TGI [20]: 2.58 µM | GI50 [21]: 0.264 µM | TGI [21]: > 100 µM | GI50 [22]: 0.295 µM | TGI [22]: 5.35 µM | GI50 [23]: 0.33 µM | TGI [23]: 2.67 µM | GI50 [24]: 0.412 µM | TGI [24]: 5.28 µM | GI50 [25]: 0.249 µM | TGI [25]: 0.799 µM | GI50 [26]: 0.474 µM | TGI [26]: 2.92 µM | GI50 [27]: 1.49 µM | TGI [27]: 4.17 µM | GI50 [28]: 0.369 µM | TGI [28]: > 48.3 µM | GI50 [29]: 0.367 µM | TGI [29]: 1.9 µM | GI50 [30]: 0.379 µM | TGI [30]: 1.69 µM | GI50 [31]: 0.478 µM | TGI [31]: 2.49 µM | GI50 [32]: 1.03 µM | TGI [32]: 4.06 µM | GI50 [33]: 0.374 µM | TGI [33]: 1.92 µM | GI50 [34]: 0.331 µM | TGI [34]: 17.3 µM | GI50 [35]: 0.421 µM | TGI [35]: 11.8 µM | GI50 [36]: 0.475 µM | TGI [36]: 1.36 µM | GI50 [37]: 0.382 µM | TGI [37]: 1.91 µM | GI50 [38]: 0.36 µM | TGI [38]: > 100 µM | GI50 [39]: 1.37 µM | TGI [39]: 6.09 µM | GI50 [40]: 0.316 µM | TGI [40]: 2.82 µM | GI50 [41]: 0.954 µM | TGI [41]: 6.8 µM | GI50 [42]: 0.717 µM | TGI [42]: 2.9 µM | GI50 [43]: 2.05 µM | TGI [43]: 6.61 µM | GI50 [44]: 0.274 µM | TGI [44]: 1.7 µM | GI50 [45]: 1.05 µM | TGI [45]: 7.34 µM | GI50 [46]: 0.814 µM | TGI [46]: 2.66 µM | GI50 [47]: 0.235 µM | TGI [47]: 0.856 µM | GI50 [48]: 0.502 µM | TGI [48]: 2.42 µM | GI50 [49]: 0.417 µM | TGI [49]: 1.73 µM | GI50 [50]: 0.544 µM | TGI [50]: 2.21 µM | GI50 [51]: 0.634 µM | TGI [51]: 2.03 µM | GI50 [52]: 0.419 µM | TGI [52]: 18.2 µM | GI50 [53]: 0.601 µM | TGI [53]: 3.24 µM | GI50 [54]: 0.345 µM | TGI [54]: 4.77 µM | GI50 [55]: 0.645 µM | TGI [55]: 2.99 µM | GI50 [56]: 1.4 µM | TGI [56]: 19.4 µM | GI50 [57]: 1.36 µM | TGI [57]: 4.65 µM | GI50 [58]: 0.373 µM | TGI [58]: 1.34 µM
